Assay results from patent US9999222B2, “Herbicidal combination comprising azines” (BASF SE, priority 2014, dated 2018).
Like-named read-outs stand apart in the source and are kept apart here.

Tests used:
Assay in all cases: Greenhouse test, pre-emergence treatment
[1] = test system: ALOMY; format: in vivo, Alopecurus myosuroides; conditions: Alopecurus myosuroides, pre-emergence, 480 h, pre-emergence, read-out: observed % activity 20 DAT
In short: (§1)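 Seeds were sown in loamy sand with approximately 3.0% humus, then sprayed at once with actives suspended or emulsified in water. Pots were watered, hooded until rooting, held at 10-25° C. or 20-35° C. by species for 2 to 4 weeks, and scored 0 (no damage) to 100 (no emergence/complete destruction).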

[2] = test system: KCHSC; format: in vivo, Kochia scoparia; conditions: Bassia scoparia, 480 h, pre-emergence, read-out: observed % activity 20 DAT
In short: as §1

[3] = test system: POLCO; format: in vivo, Polygonum convolvulus; conditions: Fallopia convolvulus, 480 h, pre-emergence, read-out: observed % activity 20 DAT
In short: as §1

[4] = test system: SETFA; format: in vivo, Setaria faberi
In short: as §1

[5] = test system: BRADC; format: in vivo, Brachiaria decumbens; conditions: Urochloa decumbens, pre-emergence, 480 h, pre-emergence, read-out: observed % activity 20 DAT
In short: as §1

[6] = test system: LOLMU; format: in vivo, Lolium multiflorum; conditions: Lolium multiflorum, pre-emergence, 480 h, pre-emergence, read-out: observed % activity 20 DAT
In short: as §1

[7] = test system: ECHCG; format: in vivo, Echinocloa crus-galli; conditions: Echinochloa crus-galli, 480 h, use rate 31.25 g ai/ha, read-out: observed % activity 20 DAT
In short: as §1

[8] = test system: AVEFA; format: in vivo, Avena fatua; conditions: pre-emergence
In short: as §1

[9] = test system: EPHHL; format: in vivo, Euphorbia heterophylla; conditions: Euphorbia heterophylla, pre-emergence, 480 h, pre-emergence, 250 g ai/ha; read-out: observed % activity 20 DAT
In short: as §1

[10] = test system: APESV; format: in vivo, Apera spica-venti; conditions: use rate 62.5 g ai/ha, 20 DAT
In short: as §1

[11] = test system: PHACA; format: in vivo, Phalaris canariensis; conditions: pre-emergence, pre-emergence
In short: as §1

[12] = test system: GERPU; format: in vivo, Geranium pusillum; conditions: Geranium pusillum, pre-emergence, 480 h, pre-emergence, read-out: observed % activity 20 DAT
In short: as §1

COCC(C)N(C(=O)CCl)c1c(C)csc1C (centres unmarked) [Dimethenamid, dimethenamid] was tested, and the pest or weed control at 125 g/ha ([1]; 125 g ai/ha) was 25%, the pest or weed control at 500 g/ha ([1]; 500 g ai/ha) was 75% and the pest or weed control at 62.5 g/ha ([1]; use rate 62.5 g ai/ha, 20 DAT) was 0%. It also gave an inhibition at 62.5 g/ha ([1]; use rate 62.5 g ai/ha) of 0%, an inhibition at 125 g/ha ([1]; use rate 125 g ai/ha) of 35% and a pest or weed control at 250 g/ha ([2]; 250 g ai/ha) of 75%. It also gave a pest or weed control at 31.25 g/ha ([2]; use rate 31.25 g ai/ha, 20 DAT) of 0%, a pest or weed control at 62.5 g/ha ([2]; use rate 62.5 g ai/ha, 20 DAT) of 0% and a pest or weed control at 125 g/ha ([2]; use rate 125 g ai/ha, 20 DAT) of 0%. For the same molecule, the inhibition at 31.25 g/ha ([2]; use rate 31.25 g ai/ha) was 0%, the inhibition at 62.5 g/ha ([2]; use rate 62.5 g ai/ha) was 0% and the inhibition at 125 g/ha ([2]; use rate 125 g ai/ha) was 0%. For the same molecule, the pest or weed control at 31.25 g/ha ([3]; use rate 31.25 g ai/ha, 20 DAT) was 0%, the pest or weed control at 62.5 g/ha ([3]; use rate 62.5 g ai/ha, 20 DAT) was 0% and the pest or weed control at 125 g/ha ([3]; use rate 125 g ai/ha, 20 DAT) was 0%. The inhibition at 31.25 g/ha ([3]; use rate 31.25 g ai/ha) was 0%, the inhibition at 62.5 g/ha ([3]; use rate 62.5 g ai/ha) was 0% and the inhibition at 125 g/ha ([3]; use rate 125 g ai/ha) was 0%. The inhibition at 15.625 g/ha ([4]; Setaria faberi, 480 h, use rate 15.625 g ai/ha, read-out: observed % activity 20 DAT) was 85%, the inhibition at 31.25 g/ha ([4]; Setaria faberi, 480 h, use rate 31.25 g ai/ha, read-out: observed % activity 20 DAT) was 98% and the “observed % activity 20 DAT” value ([4]; use rate 31.25 g ai/ha, 20 DAT) was 98%. The pest or weed control at 125 g/ha ([5]; 125 g ai/ha) was 98%, the pest or weed control at 250 g/ha ([5]; 250 g ai/ha) was 98% and the pest or weed control at 500 g/ha ([5]; 500 g ai/ha) was 98%. For the same molecule, the pest or weed control at 125 g/ha ([6]; 125 g ai/ha) was 85%, the pest or weed control at 250 g/ha ([6]; 250 g ai/ha) was 98% and the pest or weed control at 15.625 g/ha ([6]; use rate 15.625 g ai/ha, 20 DAT) was 0%. For the same molecule, the inhibition at 31.25 g/ha ([6]; use rate 31.25 g ai/ha) was 55%, the pest or weed control at 62.5 g/ha ([6]; use rate 62.5 g ai/ha, 20 DAT) was 85% and the inhibition at 62.5 g/ha ([6]; use rate 62.5 g ai/ha) was 85%. It also gave a pest or weed control at 125 g/ha ([6]; use rate 125 g ai/ha, 20 DAT) of 95%, an inhibition at 125 g/ha ([6]; use rate 125 g ai/ha) of 95% and a pest or weed control at 31.25 g/ha ([7]; 20 DAT) of 98%. For the same molecule, the inhibition at 31.25 g/ha [7] was 98%, the “observed % activity 20 DAT” value ([8]; 55 g ai/ha) was 95% and the “observed % activity 20 DAT” value ([8]; 250 g ai/ha) was 85%. For the same molecule, the pest or weed control at 250 g/ha [9] was 25%, the “observed % activity 20 DAT” value [10] was 95% and the pest or weed control at 125 g/ha ([11]; Phalaris canariensis, 480 h, 125 g ai/ha, read-out: observed % activity 20 DAT) was 70%. It also gave a pest or weed control at 500 g/ha ([11]; Phalaris canariensis, 480 h, 500 g ai/ha, read-out: observed % activity 20 DAT) of 98%, a pest or weed control at 15.625 g/ha ([11]; Phalaris canariensis, 480 h, use rate 15.625 g ai/ha, 20 DAT, read-out: observed % activity 20 DAT) of 10% and a pest or weed control at 31.25 g/ha ([11]; Phalaris canariensis, 480 h, use rate 31.25 g ai/ha, 20 DAT, read-out: observed % activity 20 DAT) of 55%. For the same molecule, the inhibition at 31.25 g/ha ([11]; Phalaris canariensis, 480 h, use rate 31.25 g ai/ha, read-out: observed % activity 20 DAT) was 55%, the pest or weed control at 62.5 g/ha ([11]; Phalaris canariensis, 480 h, use rate 62.5 g ai/ha, 20 DAT, read-out: observed % activity 20 DAT) was 65% and the pest or weed control at 125 g/ha ([11]; Phalaris canariensis, 480 h, use rate 125 g ai/ha, 20 DAT, read-out: observed % activity 20 DAT) was 80%. The inhibition at 125 g/ha ([11]; Phalaris canariensis, 480 h, use rate 125 g ai/ha, read-out: observed % activity 20 DAT) was 80%, the “observed % activity 20 DAT” value ([11]; 125 g ai/ha) was 70% and the pest or weed control at 250 g/ha ([12]; 250 g ai/ha) was 98%. For the same molecule, the inhibition at 15.625 g/ha ([12]; use rate 15.625 g ai/ha) was 50%, the inhibition at 31.25 g/ha ([12]; use rate 31.25 g ai/ha) was 70% and the pest or weed control at 62.5 g/ha ([12]; use rate 62.5 g ai/ha, 20 DAT) was 85%. It also gave an inhibition at 62.5 g/ha ([12]; use rate 62.5 g ai/ha) of 85% and a pest or weed control at 125 g/ha ([12]; use rate 125 g ai/ha, 20 DAT) of 95%.
